Assay results as given in US8129340B2, “Inhibitors of protein phosphatase 1, GADD34 and protein phosphatase 1/GADD34 complex, preparation and uses thereof” (Institut Gustave Roussy, priority 2006, dated 2012).
Peptide text beside a SMILES is read from it. * marks the point of attachment. Cbz = O=C(OCc1ccccc1)*; CH2F = FC*

Columns and labels:
CT26 tumour cells [1] = assay: Anti-tumour vaccination: dying treated CT26 cells injected in one flank, later challenge with live tumour cells; format: in vivo, BALB/c mice; conditions: for induction of immunogenic cell death by the inhibitor alone: without cell death inducer
cell surface CRT = assay: Fluorescence detection of cell surface CRT on CT26 cells (cytofluorometry); format: cell-based, murine; conditions: agent alone; for induction of ecto-CRT and/or ecto-Erp57: tumour cells
Description: FIG. 1SA, FIG. 1SB: Kinetics of CRT exposure. CT26 cells were treated with mitoxantrone for the indicated period, followed by immunofluorescence staining with a CRT-specific antibody and cytofluorometric analysis.
FIG. 2E: Correlation between CRT exposure and immunogenicity. The surface exposure of CRT was determined by immunofluorescence cytometry while gating on viable (propidium iodine-negative) cells (inserts) and was correlated with the immunogenicity of cell death (as determined in FIG. 1). CO, control; Tg, thapsigargin; Tu, tunicamycin.
FIG. 5E: Kinetics of CRT exposure determined by FACS analysis after incubation of cells with the indicated agents.
FIG. 5F-FIG. 5G: PP1/GADD34 inhibitors render cell immunogenic via CRT. Tumour cells were first transfected with a control siRNA or a CRT-specific siRNA and then treated in vitro with etoposide, alone or in combination with PP1/GADD34 inhibitors. […] The results represent the % of tumour free mice (comprising a total of 12 to 18 mice per group).
CT26 cells (on a glass slide or in 12-well plates) were first washed with FACS buffer (1×PBS, 5% fetus bovine serum, and 0.1% sodium azide) and then incubated with rabbit anti-mouse CRT antibody (1:100, Stressgen) in FACS buffer at 4° C. for 30 min. Cells reacted with anti-rabbit IgG (H+L) Alexa fluor 488-conjugates (1:500) in FACS buffer at 4° C. for 30 min. After washing three times with FACS buffer, surface CRT was detected by cytofluorometric analysis on a FACS Vantage. In some experiments, cells were fixed with 4% paraformaldehyde, counterstained with Hoechst (2 μM; Sigma), followed by fluorescence microscopic assessment with a Leica IRE2 microscope equipped with a DC300F camera.

CT26 tumours [2] = assay: Intratumoural treatment of established CT26 tumours in immunocompetent mice; format: in vivo, BALB/c mice (wild type)
CT26 tumours [3] = assay: Intratumoural treatment of established CT26 tumours in immunodeficient mice; format: in vivo, athymic nu/nu Balb/c mice
CRT [4] = assay: CRT exposure on tumour cell lines of murine origin (MCA205, B16F10, J558); format: cell-based
CRT [5] = assay: CRT exposure on tumour cell lines of human origin (HeLa, A549, HCT116); format: cell-based
CT26 colon cancer cells = assay: In vivo anti-cancer vaccination: treated tumour cells in one flank and live tumour cells in opposite flank simultaneously; set-up: species or system BALB/c mice
Description: FIG. 4A: In vivo anti-cancer vaccination depends on CRT. CT26 colon cancer cells were transfected with the indicated siRNAs, then treated with rCRT and/or mitoxantrone (as in FIG. 3D) and the anti-tumour response was measured by simultaneously challenging BALB/c mice with mitoxantrone treated tumour cells in one flank and untreated live tumour cells in the opposite flank.
FIG. 4D: CRT-mediated amelioration of the immune response against etoposide-treated tumour cells. CT26 cells were treated for 24 h with etoposide (or PBS) and rCRT was optionally absorbed to the cell surface (inserts), followed by simultaneous injection of the etoposide ±rCRT-treated tumour cells and live tumour cells in opposite flanks and monitoring of tumour growth.
(§1) Tumours were evaluated weekly, using a caliper.

CT26 cells = assay: Phagocytosis of CT26 tumour cells by dendritic cells (FACS, double positive cells); format: cell-based, BALB/c mice; conditions: cells transfected with siRNA
Description: FIG. 3A, FIG. 3B: Correlation between tumour cell phagocytosis and CRT exposure. Tumour cells labelled with Cell Tracker Green were cultured with CD11c-expressing DC and the percentage of DC taking up tumour cells was determined (A) and correlated with the CRT surface exposure (B), measured as in FIG. 2E.
Mitoxantrone-treated or control cells were incubated with a blocking chicken anti-CRT antibody, followed by detection of phagocytosis by CD.
Cells were transfected with the indicated siRNAs and optionally treated with rCRT, followed by immunoblot (FIG. 3D) detection of surface CRT (FIG. 3E) and phagocytosis by DC (FIG. 3F). Results are triplicates (X±SD) and representative of three independent experiments. * denotes statistically significant differences using the Student t′ test at p<0.001.
BM cells were flushed from the tibias and femurs of BALB/c mice with culture medium composed of RPMI 1640 medium (Invitrogen Life Technologies) supplemented with 10% heat-inactivated FBS (Invitrogen), sodium pyruvate, 50 μM 2-ME (Sigma), 10 mM HEPES (pH 7.4), and penicillin/streptomycin (Invitrogen). After one centrifugation, BM cells were resuspended in Tris-ammonium chloride for 2 min to lyse RBC. After one more centrifugation, BM cells (1×10^6 cells/ml) were cultured in medium supplemented with 100 ng/ml recombinant mouse FLT3 ligand (R&D systems) in 6-well plates (Costar Corning). After 7 days, the non-adherent and loosely adherent cells were harvested with Versene, washed and transferred in 12-well plates (1.5×10^6 cells/plate) for cocultures with tumour cells.
In 12-well plates, […] adherent CT26 cells were labelled with Celltracker Green (Calbiochem) and then incubated with drugs. In some experiments viable CT26 were coated with 2 μg/10^6 cells of chicken anti-CRT antibody (ABR affinity bioreagents) or an isotype control for 30 min prior to washing and feeding to dendritic cells Cs. Alternatively CT26 cells were coated with 2 μg/10^6 cells of rCRT on ice for 30 min and washed twice prior to addition to dendritic cells. Cells were then harvested, washed three times with medium supplemented with FBS and cocultured with immature DC for 2 hours at a ratio of 1:1 and 1:5. At the end of the incubation, cells were harvested with versene, pooled with non-adherent cells present in the supernatant, washed and stained with CD11c-FITC antibody. Phagocytosis was assessed by FACS analysis of double positive cells. Phagocytic indexes refer to the ratio between values obtained at 4° C. and values obtained at 37° C. of co-incubation between DC and tumour cells.

CT26 tumour cells [6] = assay: Local immune response: tumour cells injected into foot pad, IFN-γ secretion by draining popliteal lymph node cells (ELISA); format: in vivo, Balb/c mice; conditions: cells injected into the foot pad
Description: FIG. 4B: Priming of T cell responses depending on CRT. CT26 tumour cells were left untransfected or transfected with the indicated siRNAs, then treated with medium alone, mitomycin C or mitoxantrone and injected into the right food pad of Balb/c mice. Five days later, mononuclear cells from the draining popliteal lymph nodes were challenged with freeze-thawed CT26 cells, and IFN-γ secretion was assessed at 72 hrs.
FIG. 4C: Exogenous supply of CRT enhances the immunogenicity of CRT-negative dying cells. CT26 cells lacking CRT expression after depletion of CRT with a siRNA and mitoxantrone treatment or after mitomycin treatment were coated with rCRT (inserts) and then injected in the food pad, followed by assessment of the IFN-γ secretion by cells from the draining lymph nodes as in FIG. 4B.
as §1

calreticulin [7] = assay: Calreticulin exposure by immunofluorescence staining and flow cytometry, HCT116 cells; format: cell-based, human; conditions: 2 hours
Description: (§2) HCT116 cells (FIG. 7A) or CT26 cells (FIG. 7B) were cultured in complete mediums supplemented with 10% fetal calf serum alone or in the presence of the control peptide (VKKKKIKREIKI-lkaravafsekv) (SEQ ID NO: 17) or the PP1/GADD34 inhibitory peptide (VKKKKIKREIKI-lkarkvrfsekv, SEQ ID NO: 4. denominated PP1 peptide) for 2 hours. Cells were washed twice with PBS and fixed in PFA (4% w/v) for 5 min. Cells were stained with an antibody against calreticulin (pAb from Abeam, ab2907) at 1:200 dilution or isotype control, in staining buffer (PBS, 1% FCS) for 30 min on ice, followed by washing. An anti-rabbit Alexa fluor 488 immunoglobulin conjugate (Molecular Probes-Invitrogen) diluted at 1:500 was added for an additional 30 min on ice before washing and analysed by flow cytometry (FACScan, Becton Dickinson). Propidium Iodide (50 μg/ml, Becton Dickinson) was added to the samples to label and exclude permeabilized (dead) cells.

calreticulin [8] = assay: Calreticulin exposure by immunofluorescence staining and flow cytometry, CT26 cells (peptide test); format: cell-based, murine; conditions: 2 hours
Description: as §2

[9] = dying CT26 cells treated with agent injected into one flank, live tumour cells in opposite flank 8 days later

## C/C=C(/C)C(=O)O[C@H]1C(C)=C2[C@H]([C@@H]1OC(=O)CCCCCCC)[C@@](C)(OC(C)=O)C[C@H](OC(=O)CCC)[C@@]1(O)[C@H]2OC(=O)[C@@]1(C)O [thapsigargin]
CT26 tumour cells [1]; [9]
  immunogenicity of cell death (protection against tumour growth, anti-tumour vaccination): failed to induce immunogenic apoptosis

## CCOc1ccc(-c2nc3ccc(-c4nc5ccc(N6CCN(C)CC6)cc5[nH]4)cc3[nH]2)cc1 [Hoechst 33342]
CT26 tumour cells [1]; [9]
  immunogenicity of cell death (protection against tumour growth, anti-tumour vaccination): failed to induce immunogenic apoptosis

## tunicamycin
CT26 tumour cells [1]; [9]
  immunogenicity of cell death (protection against tumour growth, anti-tumour vaccination): failed to induce immunogenic apoptosis

## CC[C@@]1(O)C(=O)OCc2c1cc1n(c2=O)Cc2cc3ccccc3nc2-1 [camptothecin]
CT26 tumour cells [1]; [9]
  immunogenicity of cell death (protection against tumour growth, anti-tumour vaccination): failed to induce immunogenic apoptosis

## COC(=O)C[C@H](NC(=O)[C@H](C)NC(=O)[C@@H](NC(=O)OCc1ccccc1)C(C)C)C(=O)CF [Z-VAD-fmk] (Cbz-Val-Ala-Asp(OMe)-CH2F)
CT26 tumour cells [1]; combined with doxorubicin
  effect on immunogenicity of doxorubicin-elicited cell death: reduces the immunogenicity of doxorubicin-elicited cell death

## CO[C@@]12[C@H](COC(N)=O)C3=C(C(=O)C(C)=C(N)C3=O)N1C[C@@H]1N[C@@H]12 [mitomycin C]
CT26 tumour cells [1]; mouse, in vivo
  immunogenicity of cell death (protection against tumour growth, anti-tumour vaccination): failed to induce immunogenic apoptosis
Cell surface CRT
  induction of CRT exposure at the cell surface: cannot promote CRT exposure on tumor cell surface
  induction of ecto-CRT and/or ecto-Erp57: fail to induce ecto-CRT and/or ecto-Erp57
CT26 tumours [2]; mouse, in vivo
  therapeutic effect of single agent on established tumours, immunocompetent mice: no major therapeutic effect
CT26 tumours [3]; mouse, in vivo
  therapeutic effect of single agent on established tumours, nu/nu mice: no major therapeutic effect

## O=C(/C=C/c1ccccc1)NC(NC(=S)Nc1cccc2cccnc12)C(Cl)(Cl)Cl (centres unmarked) [salubrinal]
CT26 tumour cells [1]
  induction of immunogenic cell death by the inhibitor alone: not sufficient to induce immunogenic cell death
Cell surface CRT
  induction of CRT exposure at the cell surface: efficiently induced
CRT [4]
  CRT exposure on murine tumour cell lines: induced CRT exposure
CRT [5]
  CRT exposure on human tumour cell lines: induced CRT exposure
CT26 tumours [2]; intratumoural injection with etoposide or mitomycin C
  therapeutic effect combined with a cell death inducer (etoposide or mitomycin C), immunocompetent mice: stable disease or complete tumour regression
CT26 tumours [2]; single intratumoural injection, 14-day-old CT26 tumours
  therapeutic effect of single agent on established tumours, immunocompetent mice: no major therapeutic effect
CT26 tumours [3]; single intratumoural injection
  therapeutic effect of single agent on established tumours, nu/nu mice: no major therapeutic effect

## COC[C@@H]([C@H](O)[C@H](O)C(=O)NCC[C@H](C)c1nc(/C=C/C[C@@H]2O[C@]3(C[C@@H](O)[C@@H]2C)O[C@H]([C@H](C[C@H](O)[C@H](C)[C@H](O)[C@H](C)/C=C(C)/C(C)=C/C=C/C(C)=C\C#N)OC)[C@H](OP(=O)(O)O)C3(C)C)co1)N(C)C [calyculin A]
CT26 tumour cells [1]
  induction of immunogenic cell death by the inhibitor alone: not sufficient to induce immunogenic cell death
Cell surface CRT
  induction of CRT exposure at the cell surface: efficiently induced

## C[C@H]1CCC/C=C/[C@@H]2C[C@H](O)C[C@H]2[C@H](O)/C=C/C(=O)O1 [brefeldin, brefeldin A]
CT26 tumour cells [1]; [9]
  immunogenicity of cell death (protection against tumour growth, anti-tumour vaccination): failed to induce immunogenic apoptosis

## CCCCCCCCCCCCC/C=C/[C@@H](O)[C@H](CO)NC(C)=O [C2 ceramide, C2-ceramide]
CT26 tumour cells [1]; [9]
  immunogenicity of cell death (protection against tumour growth, anti-tumour vaccination): failed to induce immunogenic apoptosis

## CC(=O)[C@]1(O)Cc2c(O)c3c(c(O)c2[C@@H](O[C@H]2C[C@H](N)[C@H](O)[C@H](C)O2)C1)C(=O)c1ccccc1C3=O [idarubicin]
CT26 tumour cells [1]; [9]
  immunogenicity of cell death (protection against tumour growth, anti-tumour vaccination): elicited immunogenic cell death

## COc1cc([C@@H]2c3cc4c(cc3[C@@H](O[C@@H]3O[C@@H]5CO[C@@H](C)O[C@H]5[C@H](O)[C@H]3O)[C@H]3COC(=O)[C@H]23)OCO4)cc(OC)c1O [etoposide]
CT26 tumour cells [1]; [9]
  immunogenicity of cell death (protection against tumour growth, anti-tumour vaccination): failed to induce immunogenic apoptosis
Cell surface CRT
  induction of ecto-CRT and/or ecto-Erp57: fail to induce ecto-CRT and/or ecto-Erp57
CT26 colon cancer cells; sham-coated cells treated with etoposide
  immunogenicity of sham-coated etoposide-treated cells: poorly immunogenic
CT26 tumours [2]; mouse, in vivo
  therapeutic effect of single agent on established tumours, immunocompetent mice: no major therapeutic effect
CT26 tumours [3]; mouse, in vivo
  therapeutic effect of single agent on established tumours, nu/nu mice: no major therapeutic effect

## 5′-rCrCrGrCUrGrGrGUrCrGrArAUrCrRrArATT-3′ [CRT-specific siRNA]
CT26 cells
  phagocytosis of anthracyclin-treated tumour cells by DC after siRNA knockdown of CRT: suppressed the phagocytosis of anthracyclin-treated tumour cells
CT26 colon cancer cells; cells injected into the flank of Balb/c mice
  immunogenicity of mitoxantrone-treated CT26 cells (efficacy of anti-tumour vaccination): compromised the immunogenicity of mitoxantrone-treated CT26 cells
CT26 tumour cells [6]
  immunogenicity of mitoxantrone-treated CT26 cells (interferon-γ production by T cells from popliteal lymph node): compromised the immunogenicity of mitoxantrone-treated CT26 cells

## VKKKKIKREIKI-lkaravafsekv (VKKKKIKREIKILKARAVAFSEKV; Artificial sequence including a fragment of GADD34 and a translocation motif) [mutant control peptide]
Calreticulin [7]
  exposure of calreticulin, HCT116 cells: did not induce calreticulin exposure
Calreticulin [8]
  exposure of calreticulin, CT26 cells: did not induce calreticulin exposure
